In ChEMBL document CHEMBL3603815, “Exploring new Probenecid-based carbonic anhydrase inhibitors: Synthesis, biological evaluation and docking studies” (Bioorg Med Chem, 2015):

Experiments:
Carbonic anhydrase 9 = Carbonic anhydrase 9 (Homo sapiens, UniProt Q16790); assay: Inhibition of human carbonic anhydrase-9 incubated for 15 mins by stopped-flow CO2 hydration assay
Carbonic anhydrase 12 = Carbonic anhydrase 12 (Homo sapiens, UniProt O43570); assay: Inhibition of human carbonic anhydrase-12 incubated for 15 mins by stopped-flow CO2 hydration assay
Carbonic anhydrase 1 = Carbonic anhydrase 1 (Homo sapiens, UniProt P00915); assay: Inhibition of human carbonic anhydrase-1 incubated for 15 mins by stopped-flow CO2 hydration assay
Carbonic anhydrase 1, sequence (P00915 whole entry): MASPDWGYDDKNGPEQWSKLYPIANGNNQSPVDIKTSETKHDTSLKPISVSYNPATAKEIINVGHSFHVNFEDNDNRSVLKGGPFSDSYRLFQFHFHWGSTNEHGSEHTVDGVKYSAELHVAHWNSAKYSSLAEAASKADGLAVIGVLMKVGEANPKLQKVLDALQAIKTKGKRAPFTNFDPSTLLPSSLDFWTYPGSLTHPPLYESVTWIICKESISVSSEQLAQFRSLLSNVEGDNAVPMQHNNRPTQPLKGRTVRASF

Carbonic anhydrase 12, sequence (O43570 whole entry): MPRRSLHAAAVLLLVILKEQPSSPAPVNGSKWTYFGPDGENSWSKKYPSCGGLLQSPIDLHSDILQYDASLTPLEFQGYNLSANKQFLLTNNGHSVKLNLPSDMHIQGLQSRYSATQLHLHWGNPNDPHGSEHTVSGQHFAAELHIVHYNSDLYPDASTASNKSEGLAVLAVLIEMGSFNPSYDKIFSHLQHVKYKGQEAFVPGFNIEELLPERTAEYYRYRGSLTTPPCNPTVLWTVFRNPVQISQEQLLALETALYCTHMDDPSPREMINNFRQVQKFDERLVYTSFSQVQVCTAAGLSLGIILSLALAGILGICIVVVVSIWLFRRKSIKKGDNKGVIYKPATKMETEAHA

Structure (SMILES) | Ki (Carbonic anhydrase 9) [nM] | also measured
CCCN(CCC)S(=O)(=O)c1ccc(C(=O)N[C@@H](CC(C)C)C(=O)O)cc1 | 26 | –
CCCN(CCC)S(=O)(=O)c1ccc(C(=O)N[C@@H](Cc2ccccc2)C(N)=O)cc1 | 25 | –
CCCN(CCC)S(=O)(=O)c1ccc(C(=O)N[C@@H](C)C(=O)O)cc1 | 27 | –
CCCN(CCC)S(=O)(=O)c1ccc(C(=O)N[C@@H](CCSC)C(=O)O)cc1 | 61 | –
CCCN(CCC)S(=O)(=O)c1ccc(C(=O)N[C@@H](CO)C(=O)O)cc1 | 27 | –
CCCN(CCC)S(=O)(=O)c1ccc(C(=O)NCC(=O)O)cc1 | – | Ki (Carbonic anhydrase 12): > 10000 nM
CCCN(CCC)S(=O)(=O)c1ccc(C(=O)N[C@@H](Cc2ccc(O)cc2)C(=O)O)cc1 | 32 | –
CCCN(CCC)S(=O)(=O)c1ccc(C(=O)N[C@@H](CCCNC(=N)N)C(=O)O)cc1 | 26 | –
CCCN(CCC)S(=O)(=O)c1ccc(C(=O)N[C@@H](CO)C(N)=O)cc1 | 2.6 | –
CCCN(CCC)S(=O)(=O)c1ccc(C(=O)N[C@@H](Cc2ccc(O)cc2)C(N)=O)cc1 | 21 | –
CCCN(CCC)S(=O)(=O)c1ccc(C(=O)N[C@@H](Cc2c[nH]c3ccccc23)C(=O)O)cc1 | 25 | –
CCCN(CCC)S(=O)(=O)c1ccc(C(=O)N[C@@H](CCSC)C(N)=O)cc1 | – | Ki (Carbonic anhydrase 1): > 10000 nM
CCCN(CCC)S(=O)(=O)c1ccc(C(=O)N[C@@H](CCCNC(=N)N)C(N)=O)cc1 | 20 | –
CCCN(CCC)S(=O)(=O)c1ccc(C(=O)N[C@@H](CCCCN)C(N)=O)cc1 | 27 | –
CCCN(CCC)S(=O)(=O)c1ccc(C(=O)N[C@@H](CCC(=O)O)C(=O)O)cc1 | 31 | –
CCCN(CCC)S(=O)(=O)c1ccc(C(=O)N[C@@H](CCCCN)C(=O)O)cc1 | 32 | –
CCCN(CCC)S(=O)(=O)c1ccc(C(=O)N[C@@H](Cc2ccccc2)C(=O)O)cc1 | 210 | –
CCCN(CCC)S(=O)(=O)c1ccc(C(=O)N[C@@H](CC(C)C)C(N)=O)cc1 | 150 | –
CCCN(CCC)S(=O)(=O)c1ccc(C(=O)N[C@@H](C)C(N)=O)cc1 | 15 | –
CCCN(CCC)S(=O)(=O)c1ccc(C(=O)N[C@@H](CS)C(N)=O)cc1 | 28 | –
CCCN(CCC)S(=O)(=O)c1ccc(C(=O)NCC(N)=O)cc1 | 1.9 | –
